The test system of experiment [1] is Akt, onco-proteins in MDA-MB-468 tumors. In words: pharmacodynamic Western blot of MDA-MB-468 tumors. It counts as in vivo, mice. The method, then:
Pharmacodynamic analyses. For protein analysis, tumors were homogenized in SDS lysis buffer (50 mM Tris, pH 7.4, 2% SDS) and subjected to Western blot analysis. Protein concentrations were determined using the BCA kit (Pierce) according to the manufacturer's instructions. Protein lysates (20-100 μg) were electrophoretically resolved by SDS/PAGE, transferred to nitrocellulose membrane, and probed with the indicated primary antibodies: Anti-Hsp90 from mouse (1:500, SPA-830; Stressgen), anti-Akt from rabbit (1:500, 9272; Cell Signaling), anti-phospho-Akt (Ser 473) from rabbit (1:500, 9271S; Cell Signaling), anti-PARP (p85 fragment) from rabbit (1:250, G7341; Promega). Membranes were then incubated with a 1:5,000 dilution of a peroxidase-conjugated corresponding secondary antibody. Equal loading of the protein samples was confirmed by parallel Western blots for β-actin (1:5,000, ab8227-50; Abcam). Detection was performed using the ECL Enhanced Chemiluminescence Detection System (Amersham Biosciences) according to the manufacturer's instructions.
A general note: A western blot detects proteins with antibodies after separation by electrophoresis.

For experiment [2], the system named is HSP90. It counts as binding.
Another experiment relates to circulating tumor cells. In words: number of circulating tumor cells in blood of patient after PU-H71. It counts as in vivo, human. The settings on record: 24 h after 20 mg/m2. An excerpt:
Circulating tumor cells (CTCs) are cells that have detached from a primary tumor and circulate in the bloodstream. CTCs may constitute seeds for subsequent growth of additional tumors (metastasis) in different tissues.

In experiment [3] the test system is HSP90. In words: fluorescence polarization HSP90 binding assay using SKBr3 cancer cell lysate. (In fluorescence polarisation assays a small probe gives low polarisation when free and higher when bound to something large.)
Another experiment has as its target 359 kinases. In words: scanMAX kinase screen (Ambit). The settings on record: 10 μM. It counts as binding.
Another experiment concerns oncogenic HSP90. In words: PU-H71-FITC2 binding to pancreatic and breast cancer cell lines relative to HL-60 versus viability.
A further experiment deals with AML cell lines. Kind of experiment: apoptosis in AML cell lines, acridine orange/ethidium bromide. It counts as cell-based, human. On the procedure: (§1) Apoptosis Assay: Cells were treated for 24, 48 or 72 h with vehicle (DMSO) or inhibitors as indicated. Following staining with Acridine Orange and Ethidium Bromide (1:1 mix of 100 µg/ml), cells were visualized with a fluorescent microscope (Zeiss Axiovert 40 CFL) and counted. Percentage of apoptotic cells was determined from 200-300 cells counted in each group. The percentage of apoptotic cells was calculated as: % Apoptotic cells=(total number of cells with apoptotic nuclei/total number of cells counted)×100.

For experiment [4], the system named is FL5.12 mAKT-transfected cells. Kind of experiment: apoptosis in mAKT-transfected FL5.12 cells. Type of experiment: cell-based.
Excerpt: FL5.12 was derived as an interleukin-3 (IL-3)-dependent cell line with a functional JAK/STAT pathway and it has characteristic features of an early lymphocytic progenitor. Both the parental cells and the transfected cells express moderate-levels of active AKT and STAT5, as evidenced by AKT phosphorylation on Ser473 and STAT5 phosphorylation on Tyr694, respectively. The level of p-STAT5 but not p-AKT is dependent on the presence of IL-3. Introduction of a constitutively activated, myristoylated form of AKT (mAKT) under the control of a doxycycline (DOX)-inducible promoter further allows for the regulation of p-AKT levels in these cells. All together, these cells are a good isogenic model to evaluate the dependence of HSP90 inhibitor apoptotic sensitivity on activated AKT and STAT5-pathways.
Cells: Kasumi-1, SKNO-1, MOLM-13, MO-91, HEL, HL-60, THP-1, MV4-11 were grown in RPMI media supplemented with 10 mM HEPES, 4.5 g/L glucose, 1.5 g/L sodium bicarbonate, 1 mM sodium pyruvate, 10% FBS, and 1% penicillin/streptomycin. The stable transfectants of FL5.12 were previously described (18-Karnauskas 2003). In brief, for the generation of FL5.mAKT the myristylated AKT was cloned in the doxycycline inducible vector pRevTRE (Clontech) (this clone is designated mAKT). As a control, cell were transfected with vector alone (this clone is designated Vector). For generation of FL5.mAkt.Bcl-xL, the human Bcl-xL cDNA was cloned into the EcoRI site of the pBabePuro vector, and transfected into FL5.mAkt3 as described (18) (this clone is designated mAKT.Bcl-xL). These lines were cultured as described previously using DME-HG media supplemented with 10 mM HEPES, 10% FBS media containing 1 mg/ml Geneticin (G418) (Sigma #G9516) and 1 or 2 ng/mL of IL-3 (RD Systems #403 ML).
as §1
Western blot: Cells were grown to 60-70% confluence and treated with inhibitor or vehicle for the indicated times. Protein lysates were prepared in 50 mM Tris pH 7.4, 150 mM NaCl and 1% NP-40 lysis buffer. Protein concentrations were measured using the BCA kit (Pierce) according to the manufacturer's instructions. Protein lysates (10-100 μg) were resolved by SDS-PAGE, transferred onto nitrocellulose membrane and incubated with the indicated primary antibodies. […]

Usually EC50 stands for the concentration at which the effect is half-maximal. Low readings indicate higher potency in that assay, high ones lower potency in that assay. In general, IC50 refers to the concentration at which inhibition is half-maximal. As for `CC(C)NCCCn1c(Sc2cc3c(cc2I)OCO3)nc2c(N)ncnc21` [PU-H71], the “Akt degradation, decrease” value in experiment [1] (5 mg/kg 3×week, 24 h after last dose) is given as 57%. In addition, the “depletion of onco-proteins, level decrease” value in experiment [1] (1×week schedule, 24 h and 96 h after last dose) amounted to 95%. Besides, the “fraction of total cellular HSP90 bound” value in the experiment on HSP90 [2] was “approximately 30%”. Also, the “drop in the number of CTCs in the blood” value in the experiment with circulating tumor cells came to […]. In the experiment with HSP90 [3] (fluorescence polarization), the EC50 amounted to […]. Also, in the experiment with HSP90 [3] (read-out: IC50, affinity for HSP90), the IC50 stood at […]. Besides, the kinase hits result on 359 kinases was “Only SNARK (NUAK family SNF1-like kinase 2) (red dot on the kinase tree) appears as a potential low affinity kinase hit”. Further, the “sensitivity of HL-60 leukemia cells” value in the experiment with oncogenic HSP90 was “resistant”. In addition, the cells undergoing apoptosis is on record as 30% with AML cell lines (HEL, 72 h); […] in the experiment on AML cell lines (MOLM-13 and MO-91, 72 h); […] with AML cell lines (SKNO-1 and Kasumi-1, 72 h). Also, the apoptotic cells in experiment [4] (p-AKT increased by Dox) is reported as […]; in experiment [4] (without Dox), 35-40%.

The values above are taken from patent US12616759B2, “Uses of labeled HSP90 inhibitors” (Sloan-Kettering Institute for Cancer Research, priority 2011, dated 2026).
